Data published in patent US20230348369A1 (Cytokinetics, Inc., priority 2020, published 2023).
Where two headings read alike, the source gives them in different places.

Target: human NAMPT (Homo sapiens, UniProt P43490)
Assay: Human recombinant enzyme assay (NMN fluorescence biochemical assay, activation of NAMPT)
How it was run: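 Activation of recombinant human NAMPT (6 nM) with 2.5 mM ATP, 20 μM PRPP and 150 μM nicotinamide in 50 mM HEPES pH 7.2, 1 mM DTT, 1 mM CHAPS, 50 mM NaCl, 100 mM MgCl2; 60 min, ambient temperature. NMN formed was derivatized with acetophenone/KOH/formic acid, fluorescence read at 355/460 nm after 40 min.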

[1] = Table A, human recombinant NAMPT, NMN formation, 60 min
[2] = Table A, human recombinant NAMPT, NMN formation, 60 min, read-out: EC50 Human

Sequence of human NAMPT (P43490 whole entry): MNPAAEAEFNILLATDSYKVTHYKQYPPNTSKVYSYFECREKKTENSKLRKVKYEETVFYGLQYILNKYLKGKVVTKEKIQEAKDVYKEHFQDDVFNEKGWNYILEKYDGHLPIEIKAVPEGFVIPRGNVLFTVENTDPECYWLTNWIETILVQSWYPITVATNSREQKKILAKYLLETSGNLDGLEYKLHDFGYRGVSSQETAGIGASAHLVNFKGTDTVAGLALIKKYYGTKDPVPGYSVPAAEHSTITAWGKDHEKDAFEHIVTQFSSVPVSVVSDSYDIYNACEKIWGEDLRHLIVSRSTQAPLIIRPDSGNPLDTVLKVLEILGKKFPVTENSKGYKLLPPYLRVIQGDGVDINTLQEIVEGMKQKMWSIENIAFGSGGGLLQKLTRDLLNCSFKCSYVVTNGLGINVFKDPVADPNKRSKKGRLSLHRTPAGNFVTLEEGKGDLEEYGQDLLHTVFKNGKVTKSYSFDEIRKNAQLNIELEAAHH

Compound | AC1.4 Human [1] [µM] | EC50 [2] [µM] | EC50 [µM]
Cc1ccc(C(=O)N2CCC(CCCCNC(=O)NCc3ccc(Cl)cc3)CC2)cn1 [Compound 309, 1-(4-chlorobenzyl)-3-(4-(1-(6-methylnicotinoyl)piperidin-4-yl)butyl)urea] | 2.1 | 6.5 | 
Cc1ncccc1CC(=O)N1CCC(CCCCNC(=O)NCc2ccc(Cl)cc2)CC1 [Compound 310, 1-(4-chlorobenzyl)-3-(4-(1-(2-(2-methylpyridin-3-yl)acetyl)piperidin-4-yl)butyl)urea] | 0.8 | 4.1 | 
Cc1ccc(CC(=O)N2CCC(CCCCNC(=O)NCc3ccc(Cl)cc3)CC2)cn1 [Compound 311, 1-(4-chlorobenzyl)-3-(4-(1-(2-(6-methylpyridin-3-yl)acetyl)piperidin-4-yl)butyl)urea] | 1.2 | 3.4 | 
Cn1cc(C(=O)N2CCC(CCCCNC(=O)NCc3ccc(Cl)cc3)CC2)nn1 [Compound 312, 1-(4-chlorobenzyl)-3-(4-(1-(1-methyl-1H-1,2,3-triazole-4-carbonyl)piperidin-4-yl)butyl)urea] | 1.5 | 5.4 | 
Cc1ccccc1CC(=O)N1CCC(CCCCNC(=O)NCc2ccc(Cl)cc2)CC1 [Compound 313, 1-(4-chlorobenzyl)-3-(4-(1-(2-(o-tolyl)acetyl)piperidin-4-yl)butyl)urea] | 0.7 | 1.4 | 
O=C(NCCCCC1CCN(C(=O)c2ccccc2C(F)F)CC1)NCc1ccc(Cl)cc1 [Compound 314, 1-(4-chlorobenzyl)-3-(4-(1-(2-(difluoromethyl)benzoyl)piperidin-4-yl)butyl)urea] | 0.5 | 0.7 | 
O=C(NCCCCC1CCN(C(=O)c2ccccc2-c2nnn[nH]2)CC1)NCc1ccc(Cl)cc1 [Compound 315, 1-(4-(1-(2-(1H-tetrazol-5-yl)benzoyl)piperidin-4-yl)butyl)-3-(4-chlorobenzyl)urea] | 0.9 | 2 | 
O=C(NCCCCC1CCN(C(=O)Cc2cn[nH]c2)CC1)NCc1ccc(Cl)cc1 [Compound 316, 1-(4-(1-(2-(1H-pyrazol-4-yl)acetyl)piperidin-4-yl)butyl)-3-(4-chlorobenzyl)urea] | 1.4 | 6.4 | 
O=C(NCCCCN1CCN(C(=O)c2ccccc2)CC1)NCc1ccc(Cl)cc1 [Compound 317, 1-(4-(4-benzoylpiperazin-1-yl)butyl)-3-(4-chlorobenzyl)urea] | 4.2 | 25.1 | 
O=C(NCCCCC1CCN(c2nn[nH]n2)CC1)NCc1ccc(Cl)cc1 [Compound 318, 1-(4-(1-(2H-tetrazol-5-yl)piperidin-4-yl)butyl)-3-(4-chlorobenzyl)urea] | 3.9 | 8.8 | 
Cc1cccc(C)c1C(=O)N1CCC(CCCCNC(=O)NCc2ccc(Cl)cc2)CC1 [Compound 319, 1-(4-chlorobenzyl)-3-(4-(1-(2,6-dimethylbenzoyl)piperidin-4-yl)butyl)urea] | 0.8 | 0.8 | 
Cc1ccccc1C(=O)N1CCC(CCCCNC(=O)NCc2cnco2)CC1 [Compound 320, 1-(4-(1-(2-methylbenzoyl)piperidin-4-yl)butyl)-3-(oxazol-5-ylmethyl)urea] | 0.1 | 1.4 | 
Cc1ccccc1C(=O)N1CCC(CCCCNC(=O)NCc2ccc(C(N)=O)cc2)CC1 [Compound 321, 4-((3-(4-(1-(2-methylbenzoyl)piperidin-4-yl)butyl)ureido)methyl)benzamide] | 0.1 | 2.1 | 
Cc1ccccc1C(=O)N1CCC(CCCCNC(=O)NCc2ccncc2)CC1 [Compound 323, 1-(4-(1-(2-methylbenzoyl)piperidin-4-yl)butyl)-3-(pyridin-4-ylmethyl)urea] | 0.2 | 1.6 | 
[2H]C([2H])(NC(=O)NCCCCC1CCN(C(=O)c2ccccc2)CC1)c1cnco1 [Compound 324, 1-(4-(1-benzoylpiperidin-4-yl)butyl)-3-(oxazol-5-ylmethyl-d2)urea] | 0.2 | 1.9 | 
COc1ccc(CNC(=O)NC2CC3(C2)CC(c2nnc(-c4ccccc4)o2)C3)cc1 (stereo not shown) [Compound 325, 1-(4-Methoxybenzyl)-3-(6-(5-phenyl-1,3,4-oxadiazol-2-yl)spiro[3.3]heptan-2-yl)urea] | 2.4 | 30.6 | 
COc1ccc(CNC(=O)NC2CC3(C2)CC(c2nc(-c4ccccc4)co2)C3)cc1 (stereo not shown) [Compound 326, 1-(4-methoxybenzyl)-3-(6-(4-phenyloxazol-2-yl)spiro[3.3]heptan-2-yl)urea] | 4.5 |  | 
COc1ccc(CNC(=O)NC2CC3(C2)CC(c2nc4ccccc4o2)C3)cc1 (stereo not shown) [Compound 327, 1-(6-(benzo[d]oxazol-2-yl)spiro[3.3]heptan-2-yl)-3-(4-methoxybenzyl)urea] | 4.1 |  | 17.4
O=C(NCc1ccc(Cl)cc1)NC1CC2(C1)CC(C(O)c1ccccc1)C2 (stereo not shown) [Compound 328, 1-(4-chlorobenzyl)-3-(6-(hydroxy(phenyl)methyl)spiro[3.3]heptan-2-yl)urea] | 1.2 | 4.3 | 

Compound | AC1.4 Human [1] [µM] | EC50 [2] [µM] | EC50 [µM]
O=C(NCc1ccc(Cl)cc1)NC1CC2(CC(Cc3cnccn3)C2)C1 (stereo not shown) [Compound 331, 1-(4-chlorobenzyl)-3-(6-(pyrazin-2-ylmethyl)spiro[3.3]heptan-2-yl)urea] | 2.2 | 1.3 | 
N#Cc1cnn(CC2CC3(C2)CC(NC(=O)NCc2ccc(Cl)cc2)C3)c1 (stereo not shown) [Compound 333, 1-(4-chlorobenzyl)-3-(6-((4-cyano-1H-pyrazol-1-yl)methyl)spiro[3.3]heptan-2-yl)urea] | 1.8 |  | 4.4
COc1ccc(CNC(=O)NC2CC3(CC(Cc4ccc(C)cc4)C3)C2)cc1 (stereo not shown) [Compound 334, 1-(4-methoxybenzyl)-3-(6-(4-methylbenzyl)spiro[3.3]heptan-2-yl)urea] | 2.3 | 2.7 | 
COc1ccc(CNC(=O)NC2CC3(CC(Cc4cccc(C)c4)C3)C2)cc1 (stereo not shown) [Compound 335, 1-(4-Methoxybenzyl)-3-(6-(3-methylbenzyl)spiro[3.3]heptan-2-yl)urea] | 1.1 | 2.2 | 
COc1ccc(CNC(=O)NC2CC3(CC(Cc4ccccc4C)C3)C2)cc1 (stereo not shown) [Compound 336, 1-(4-methoxybenzyl)-3-(6-(2-methylbenzyl)spiro[3.3]heptan-2-yl)urea] | 0.7 | 2.1 | 
COc1ccc(CNC(=O)NC2CC3(CC(Cc4ccc(C)nc4)C3)C2)cc1 (stereo not shown) [Compound 337, 1-(4-methoxybenzyl)-3-(6-((6-methylpyridin-3-yl)methyl)spiro[3.3]heptan-2-yl)urea] | 1.0 | 26.1 | 
Cc1ccc(C(C)(O)C2CC3(CC(NC(=O)NCc4ccc(Cl)cc4)C3)C2)cn1 (stereo not shown) [Compound 338, 1-(4-chlorobenzyl)-3-(6-(1-hydroxy-1-(6-methylpyridin-3-yl)ethyl)spiro[3.3]heptan-2-yl)urea] | 6.4 | 10.3 | 
O=C(NCc1ccc(Cl)cc1)NC1CC2(CC(Cn3cncn3)C2)C1 (stereo not shown) [Compound 339, 1-(6-((1H-1,2,4-triazol-1-yl)methyl)spiro[3.3]heptan-2-yl)-3-(4-chlorobenzyl)urea] | 4.6 | 6.5 | 
O=C(NCc1ccc(Cl)cc1)NC1CC2(CC(Cc3ncccn3)C2)C1 (stereo not shown) [Compound 340, 1-(4-chlorobenzyl)-3-(6-(pyrimidin-2-ylmethyl)spiro[3.3]heptan-2-yl)urea] | 3.7 |  | 5.6
O=C(NCc1ccc(Cl)cc1)NC1CC2(C1)CC(Oc1ccncc1)C2 (stereo not shown) [Compound 341, 1-(4-chlorobenzyl)-3-(6-(pyridin-4-yloxy)spiro[3.3]heptan-2-yl)urea] | 3.9 | 2 | 
CS(=O)(=O)C1CC2(CC(NC(=O)NCc3ccc(Cl)cc3)C2)C1 (stereo not shown) [Compound 342, 1-(4-chlorobenzyl)-3-(6-(methylsulfonyl)spiro[3.3]heptan-2-yl)urea] | 33.1 | 56.1 | 
O=C(NCc1ccc(Cl)cc1)NC1CC2(C1)CC(Oc1cccnc1)C2 (stereo not shown) [Compound 343, 1-(4-chlorobenzyl)-3-(6-(pyridin-3-yloxy)spiro[3.3]heptan-2-yl)urea] | 3.0 |  | 5.6
COc1ccc(CNC(=O)NC2CC3(C2)CC(Oc2cccnc2)C3)cc1 (stereo not shown) [Compound 344, 1-(4-methoxybenzyl)-3-(6-(pyridin-3-yloxy)spiro[3.3]heptan-2-yl)urea] | 3.1 | 34.9 | 
O=C(NCc1ccc(Cl)cc1)NC1CC2(CC(Cc3cccnc3)C2)C1 (stereo not shown) [Compound 345, 1-(4-chlorobenzyl)-3-(6-(pyridin-3-ylmethyl)spiro[3.3]heptan-2-yl)urea] | 1.6 | 0.6 | 
Cc1ccc(CC2CC3(C2)CC(NC(=O)NCc2ccc(Cl)cc2)C3)cn1 (stereo not shown) [Compound 347, 1-(4-chlorobenzyl)-3-(6-((6-methylpyridin-3-yl)methyl)spiro[3.3]heptan-2-yl)urea] | 2.2 | 2.4 | 
O=C(NCc1ccc(Cl)cc1)NC1CC2(C1)CC(OCc1ccncc1)C2 (stereo not shown) [Compound 348, 1-(4-chlorobenzyl)-3-(6-(pyridin-4-ylmethoxy)spiro[3.3]heptan-2-yl)urea] | 5.0 | 5.9 | 
COc1ccc(CNC(=O)NC2CC3(C2)CC(OCc2ccncc2)C3)cc1 (stereo not shown) [Compound 349, 1-(4-methoxybenzyl)-3-(6-(pyridin-4-ylmethoxy)spiro[3.3]heptan-2-yl)urea] | 6.9 | 40.3 | 
O=C(NCc1ccc(Cl)cc1)NC1CC2(C1)CC(OCc1cccnc1)C2 (stereo not shown) [Compound 350, 1-(4-chlorobenzyl)-3-(6-(pyridin-3-ylmethoxy)spiro[3.3]heptan-2-yl)urea] | 1.7 | 6.1 | 
